The source of these data is PMC10759609, “A novel PDPN antagonist peptide CY12-RP2 inhibits melanoma growth via Wnt/β-catenin and modulates the immune cells” (Journal of Experimental & Clinical Cancer Research : CR, 2024).

A short description of data set [1]: Serum hepatic function index, xenograft nude mice (ELISA). In kind it is in vivo, BALB/c nude mice. The conditions noted are these: vs control, 25 and 100 mg/kg. The method, then: Tumorigenesis assays were conducted in vivo using BALB/c nude mice and BALB/c mice from Guangdong Medical Laboratory Animal Center. The animal study was reviewed and approved by the Administrative Committee on Animal Research of Shenzhen International Graduate School, Tsinghua University (Ethical Development No. 16, 10 November 2021). Samples with 5 × 10^5 A375 or B16F10-Luc melanoma cells were diluted in 100 μL PBS and injected subcutaneously into 6- to 8-week-old female BALB/c nude mice or BALB/c mice. 5 days later, the mice were treated with CY12-RP2 by tail vein administration at various doses (25 mg/kg and 100 mg/kg) every two days. The tumor volume and body weight were measured every 2 days, with the calculation of the tumor volume under the assumption of an ellipsoidal tumor as: tumor volume = length × width^2/2. Tumors from BALB/c nude mice were collected and photographed on day 21, while tumors from the allograft mouse model were measured using bioluminescence imaging. The blood collected from the eyes of BALB/c nude mice were stored at 4 °C for 24 h and then centrifuged for 15 min under the indicated conditions (4 °C, 3000 rpm). The supernatant was collected and assayed for drug toxicity using kits, including AST, ALT, TG, and γ-GT. […]
Fig. S5: Effects and toxicity of CY12-RP2 in vivo […]
(E) Serum ALT, AST, TG, and γ-GT levels of the orthotopic xenografts model were
measured by ELISA. (F) H&E staining of liver, heart, spleen, lung, and kidney treated

The nature of data set [2]: In vivo biodistribution (His-ELISA). Further details: species or system BALB/c nude mice. As to conditions: His-CY12-RP2, 25 and 100 mg/kg, tail vein. The method, then: In vivo biodistribution assay was conducted in BALB/c nude mice with melanoma tumor. Here we prepared 15 female BALB/c mice with subcutaneous melanoma tumor, and divided into three groups with each group of five. Mice were treated with His-CY12-RP2 by tail vein administration at various doses (25 mg/kg and 100 mg/kg). We collected at least 50 μL orbital blood samples by using capillary blood vessels at 6 h, 12 h, 24 h, 36 h, and 48 h, respectively. Five mice were used for the study of in vivo biodistribution of peptide. The organs including heart, liver, spleen, lung and kidney were collected after BALB/c nude mice were sacrificed at 48 h. The biodistribution of CY12-RP2 in blood and organs were measured using an ELISA kit (Shenzhen Ziker Biological Technology, Shenzhen, China) following the kit’s instructions.
Fig. S4: The inhibition of cells metastasis and invasion by CY12-RP2 can be […]
(A, B) The inhibition of CY12-RP2 on the migration capacity of melanoma cell lines was reversed by SKL2001 (A). Statistical analysis was performed to determine the migrated distance (B). The power field scale bar, 100 μm. (C, D) Effect of CY12-RP2 on the invasive ability of melanoma cell lines were reversed by SKL2001 (C).
Statistical analysis was performed to count the invaded cells (D). The power field scale bar, 100 μm. (E) Western blot assay was also performed to detect the proteins related to EMT and Wnt/β-catenin signaling pathway, including N-cadherin, Vimentin, snail, Dvl2, Phospho-β-catenin-S675, β-catenin, Phospho-GSK3β-Ser9 and GSK3β by CY12-RP2 with or without SKL2001 (50 μM). Data are presented as mean ± SD. *p < […]
(A) TUNEL analysis of apoptosis was conducted on orthotopic xenografts tumor sections using fluorescence staining. […] (B) Fluorescence staining of Ki67 was carried out on orthotopic xenograft tumor sections.
The power field scale bar, 100 μm. (C) Serum His-CY12-RP2 levels of the orthotopic xenografts mice treated by various dosage of CY12-RP2 were measured by His-ELISA kit. […]
kit. (E) Serum ALT, AST, TG, and γ-GT levels of the orthotopic xenografts model were measured by ELISA. […]
(In an ELISA, binding on a coated surface is turned into a signal by an enzyme label.)

Data set [3] deals with EMT and apoptosis signaling in A375 cells. Put plainly: Western blot, EMT and apoptosis proteins, A375. The format is cell-based. The conditions noted are these: 0, 5, 25 μM, 48 h. The procedure: Melanoma cells were cultured in a 60 mm dish with a complete medium and various peptide concentrations (0 μM, 5 μM, 25 μM). Protein was extracted after cells were cultured or treated for 48 h using protein lysis buffer, separated using a 10% or 15% Bis–Tris PAGE gel (Epizyme Biomedical Technology, Shanghai, China), and transferred onto a PVDF membrane (Thermo Fisher Scientific) according to standard techniques. The Western blots were imaged using Bio-rad Chemidoc MP and quantified using ImageJ software (NIH).
In general terms: A western blot detects proteins with antibodies after separation by electrophoresis.

The test system of another data set is A875 cells. Put plainly: Transwell matrigel invasion, A875. The format is cell-based. As to conditions: transwell matrigel, 0, 5, 25 μM, 48 h. The method, then:
For invasion assay, matrigel (Corning, New York, USA) was coated on the upper surface of the upper chamber. The upper chamber was filled with DMEM medium containing 2% FBS, while the lower chamber contained a medium supplemented with 20% FBS. In brief, melanoma cells (A375 GFP, A875 GFP, A375 PDPN^−/−, and A875 PDPN^+/+ cells) were seeded in the upper chamber of the transwell plate (Corning, New York, USA) at about 5 × 10^4 cells/well with the medium as described above. For peptide functionality experiments, A375 and A875 cells were seeded in the upper chamber of the transwell plate at a density of 5 × 10^4 cells/well with various peptide concentrations (0 μM, 5 μM, 25 μM). Transwell inserts were fixed using 4% paraformaldehyde after 48 h cell invasion, and crystalline violet was used for staining. The quantities of invading cells were quantified using ImageJ software (NIH).

Peptide text beside a SMILES is read from it.

Regarding `CC(C)C[C@H](NC(=O)[C@H](Cc1ccc(O)cc1)NC(=O)[C@@H](N)[C@@H](C)O)C(=O)N[C@@H](CS)C(=O)N[C@H](C(=O)N[C@@H](C)C(=O)N[C@@H](CS)C(=O)N[C@@H](CC(=O)O)C(=O)N[C@@H](Cc1ccc(O)cc1)C(=O)N[C@H](C(=O)N[C@@H](Cc1c[nH]cn1)C(=O)N[C@@H](Cc1c[nH]cn1)C(=O)O)[C@@H](C)O)[C@@H](C)O` [CY12-RP2] (H-TYLCTACDYTHH-OH; N-terminus and C-terminus assumed), in data set [1], the ALT result was “not significantly changed”, the AST entry is given as “not significantly changed”, the TG result was “increased” and the γ-GT result is “increased”. Besides, the “serum level after peak” value in data set [2] (serum, 6-48 h) is “moderately decreased progressively with time”. In data set [2] (serum, sampled 6, 12, 24, 36, 48 h), the “time of peak serum level” value came to 6 h. Moreover, in data set [2] (tumor vs heart, liver, spleen, lung, kidney at 48 h), the organ distribution entry was “significant ability to target tumors compared to other organs”. Also, in data set [3], the “expression of E-cadherin, Caspase-9, Caspase-3, and Bax” value is listed as “significantly increased”; the “expression of N-cadherin, vimentin, snail, and BCL2” value was “decreased”. The invasion result with A875 cells is listed as “could only be inhibited at high concentrations”.
